Measured values reported in patent US7718641B2, “Pyrrolo [3,4-H] isoquinoline compounds and methods for modulating gated ion channels” (Aros Pharma ApS, priority 2005, dated 2010).

Experiments:
[1] = system: rat dorsal root ganglion neurons; assay: Patch clamp (voltage clamp) of native proton-gated currents in rat dorsal root ganglion neurons in primary culture; format: cell-based; conditions: 1 μM, voltage-clamp mode, n=3
Experimental: These endogenous proton-activated inward currents were recorded in the presence and absence of Compound A (1 μM) or Compound H (1 μM) using the whole cell configuration of the patch clamp method (voltage clamp mode).
Sensory neurons can be isolated and cultured in vitro from different animal species. The most widely used protocols use sensory neurons isolated from neonatal (Eckert, et al. (1997) J Neurosci Methods 77:183-190) and embryonic (Vasko, et al. (1994) J Neurosci 14:4987-4997) rat. […] Electrophysiology is performed similarly as described above in Example 2. […] In the current-clamp mode, change in the trans-membrane potential are recorded. Under acidic conditions (e.g., pH 6.5) the membrane depolarizes, leading to the firing of action potentials, as shown in FIGS. 7A and 7B.

[2] = biological target: T1, rat ASIC3 (Rattus norvegicus, UniProt O35240); assay: Whole-cell patch clamp of acid-induced peak inward currents in HEK293 transfected with rat ASIC3; format: cell-based; conditions: for inhibitory effect on acid-induced peak inward currents, rASIC3: HEK293, voltage clamp, increasing concentrations; for potency as antagonist compared to amiloride, rASIC3: full dose-inhibition curves, HEK293
T1 construct: expressed in transfected cells; host or cells: HEK293
T1 sequence (O35240 1-533): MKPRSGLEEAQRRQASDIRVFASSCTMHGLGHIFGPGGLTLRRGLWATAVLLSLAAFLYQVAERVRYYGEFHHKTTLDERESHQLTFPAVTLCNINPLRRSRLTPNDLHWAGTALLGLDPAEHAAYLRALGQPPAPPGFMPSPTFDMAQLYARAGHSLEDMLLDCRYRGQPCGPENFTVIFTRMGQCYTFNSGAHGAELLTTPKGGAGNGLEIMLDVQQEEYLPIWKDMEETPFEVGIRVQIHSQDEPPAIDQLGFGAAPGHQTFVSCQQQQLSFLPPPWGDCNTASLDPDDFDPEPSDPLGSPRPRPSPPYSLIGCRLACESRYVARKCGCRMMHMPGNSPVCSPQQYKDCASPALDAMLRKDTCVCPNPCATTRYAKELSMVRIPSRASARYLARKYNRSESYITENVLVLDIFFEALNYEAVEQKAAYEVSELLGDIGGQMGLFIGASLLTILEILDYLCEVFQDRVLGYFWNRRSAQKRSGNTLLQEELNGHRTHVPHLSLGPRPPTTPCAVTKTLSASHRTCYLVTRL
Experimental: Another example of an in vitro assessment method consists of using mammalian heterologous expression systems, which are known to the skilled in the art, and include a variety of mammalian cell lines such as COS, HEK, e.g., HEK293 and/or CHO, cells. Cell lines are transfected with gated ion channel(s) and used to perform electrophysiology as follows:
All experiments are performed at room temperature (20-25° C.) in voltage clamp using conventional whole cell patch clamp methods (Neher, E., et al. (1978) Pfluegers Arch 375:219-228).
The amplifier used is the EPC-9 (HEKA-electronics, Lambrect, Germany) run by a Macintosh G3 computer via an ITC-16 interface. Experimental conditions are set with the Pulse-software accompanying the amplifier. Data is low pass filtered and sampled directly to hard-disk at a rate of 3 times the cut-off frequency.
Pipettes are pulled from borosilicate glass using a horizontal electrode puller (Zeitz-Instrumente, Augsburg, Germany). The pipette resistances are 2-3 MOhms in the salt solutions used in these experiments. The pipette electrode is a chloridized silver wire, and the reference is a silver chloride pellet electrode (In Vivo Metric, Healdsburg, USA) fixed to the experimental chamber. The electrodes are zeroed with the open pipette in the bath just prior to sealing.
Coverslips with the cells are transferred to a 15 μl experimental chamber mounted on the stage of an inverted microscope (IMT-2, Olympus) supplied with Nomarski optics. Cells are continuously superfused with extracellular saline at a rate of 2.5 ml/min. After giga-seal formation, the whole cell configuration is attained by suction. The cells are held at a holding voltage of −60 mV and at the start of each experiment the current is continuously measured for 45 s to ensure a stable baseline. Solutions of low pH (<7) are delivered to the chamber through a custom-made gravity-driven flowpipe, the tip of which is placed approximately 50 μm from the cell. Application is triggered when the tubing connected to the flowpipe is compressed by a valve controlled by the Pulse-software. Initially, low pH (in general, pH 6.5) is applied for 5 s every 60 s. The sample interval during application is 5501s. […] Current amplitudes are measured at the peak of the responses, and effect of the compounds is calculated as the amplitude at compound equilibrium divided by the amplitude of the current evoked by the pulse just before the compound was included. […]
HEK293 cells were transfected with rASIC1a or rASIC3 and were used to perform full dose-inhibition curves with Compound A, Compound H and amiloride. Results are expressed as a fraction of the control peak current obtained in the absence of the test substance.

[3] = system: CFA-induced inflammatory pain; assay: CFA model of chronic inflammatory pain, hindpaw weight bearing (Incapacitance Tester); format: in vivo, rat; conditions: 24 h after CFA, 60 min after drug injection, n=7-8
Experimental: Rats (body weight 260-300 g) were given a s.c. injection of CFA (50% in saline, 100 μl, Sigma) into the plantar surface of the hindpaw under brief halothane anaesthesia. After 24 h, they were then tested for hindpaw weight bearing responses, as assessed using an Incapacitance Tester (Linton Instrumentation, UK), (Zhu et al., 2005). The instrument incorporates a dual channel scale that separately measures the weight of the animal distributed to each hindpaw. While normal rats distribute their body weight equally between the two hindpaws (50-50), the discrepancy of weight distribution between an injured and non-injured paw is a natural reflection of the discomfort level in the injured paw (nocifensive behavior). The rats were placed in the plastic chamber designed so that each hindpaw rested on a separate transducer pad. […] For each rat, three readings from each paw were taken and then averaged. Side-to-side weight bearing difference was calculated as the average of the absolute value of the difference between two hindpaws from three trials (right paw reading-left paw reading).
Hindpaw weight bearing responses were measured in male Sprague-Dawley rats for 2-3 days prior to being given a hindpaw injection of CFA. Twenty-four hours later baseline responses were measured and rats were then administered Compound A (5, 10 and 20 mg/kg, i.p.), Compound H (10, 30 and 60 mg/kg) and morphine (3, 6 and 10 mg/kg). Weight bearing responses were then measured at 30, 60 and 120 min after drug or vehicle injection (data shown at 60 min.). […] Data are expressed as mean +/−SEM. *P<0.05, **P<0.01, *** P<0.001 vs baseline; +++: P<0.001 vs vehicle. All groups n=7-8.

COc1ccc(F)cc1-c1cc2c(c3c1CCN(C)C3)NC(=O)/C2=N/O [Compound A, 5-(5-fluoro-2-methoxyphenyl)-6,7,8,9-tetrahydro-3-(hydroxyimino)-8-methyl-1H-pyrrolo[3,2-h]isoquinoline-2(3H)-one]
effect on pH 6.5-induced inward current in sensory neurons [1]: inhibit the pH 6.5-induced inward current
inhibitory effect on acid-induced peak inward currents, rASIC3 [2]: dose-dependently inhibit
potency as antagonist compared to amiloride, rASIC3 [2]: more potent antagonists as compared to amiloride
CFA-induced change in hindpaw weight bearing compared with vehicle [3]: marked dose-dependent attenuation in the CFA-induced change in weight bearing

CCN1CCc2c(-c3ccccc3)cc3c(c2C1)NC(=O)/C3=N/O [Compound H, 5-phenyl-6,7,8,9-tetrahydro-3-(hydroxyimino)-8-ethyl-1H-pyrrolo[3,2-h]isoquinoline-2(3H)-one]
effect on pH 6.5-induced inward current in sensory neurons [1]: inhibit the pH 6.5-induced inward current
inhibitory effect on acid-induced peak inward currents, rASIC3 [2]: dose-dependently inhibit
potency as antagonist compared to amiloride, rASIC3 [2]: more potent antagonists as compared to amiloride
CFA-induced change in hindpaw weight bearing compared with vehicle [3]: marked dose-dependent attenuation in the CFA-induced change in weight bearing
